Where two headings read alike, the source gives them in different places.
Key:
Danio rerio larvae = assay: In vivo toxicity assay in zebrafish larvae (Casper and ABTL lines)
Method: To determine the toxicity of JP-14 to zebrafish larvae, 76 h post-fertilized (hpf) larvae ([…], ten per well) were kept in a 6-well plate and exposed to three concentrations of compound JP-14 diluted with embryonic medium (E3), whereas untreated larvae served as control (E3 alone). Each concentration was incubated in twelve wells. The mortality rate and disturbances were determined using a microscope (OPTA-TECH MN16, Warszawa, Poland) after 24 h of exposure.

HepG2 cells = assay: Glucose consumption (Amplex Red assay) in HepG2 cells; type: cell-based, human
Method: The HepG2 human hepatocellular carcinoma cell line (ATCC® HB-8065™) was cultured in DMEM supplemented with 10% FBS, 100 µg/mL streptomycin, and 100 IU/mL penicillin at 37 °C in 5% CO2. Cells were seeded in 96-well plates at a density of 10,000 cells/well and used for experiments 24 h after plating.
Stock solutions of test compounds were prepared at a concentration of 10 mM in dimethyl sulfoxide (DMSO). At least 1 mg of each substance was carefully measured and mixed with the right amount of DMSO. A series of dilutions were made in DMSO and then further diluted in phosphate-buffered saline before being introduced into the cell culture medium. Precipitation or opalescence was assessed prior to application.
The glucose uptake was measured with the Amplex® Red Glucose/Glucose Oxidase Assay Kit from Thermo Fisher Scientific, following the guidelines provided by the maker. Cell culture supernatants were collected and incubated with a reaction mix containing 100 μM Amplex® Red reagent, 0.2 U/mL horseradish peroxidase (HRP), and 1 U/mL glucose oxidase at room temperature for 30 min in the dark. Fluorescence was measured at 530 nm excitation and 590 nm emission using the POLARstar Omega plate reader (BMG Labtech).

α2A-adrenoceptor = target: T1, α2A-adrenoceptor (Homo sapiens, UniProt P08913); assay: α2A-adrenoceptor intrinsic activity, agonist mode (Tango bla reporter assay); type: cell-based; conditions: read-out: α2A Ago Emax, receptor activation relative to the full agonist control
T1 sequence (P08913 1-465): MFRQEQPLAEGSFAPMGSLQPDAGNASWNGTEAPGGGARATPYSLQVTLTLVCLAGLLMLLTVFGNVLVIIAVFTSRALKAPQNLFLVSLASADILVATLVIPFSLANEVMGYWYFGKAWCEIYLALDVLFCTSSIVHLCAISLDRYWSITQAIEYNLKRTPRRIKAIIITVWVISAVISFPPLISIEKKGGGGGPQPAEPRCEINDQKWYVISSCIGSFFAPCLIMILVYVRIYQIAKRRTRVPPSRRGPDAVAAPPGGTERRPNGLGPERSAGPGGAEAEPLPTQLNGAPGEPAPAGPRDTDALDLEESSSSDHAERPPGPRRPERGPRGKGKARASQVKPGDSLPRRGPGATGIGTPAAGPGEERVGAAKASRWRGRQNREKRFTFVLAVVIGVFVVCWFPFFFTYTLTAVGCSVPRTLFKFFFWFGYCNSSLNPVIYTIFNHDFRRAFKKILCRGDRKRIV
Method: Intrinsic α2A-adrenoceptor activity was assessed using Tango assay technology, which utilizes a mammalian-optimized beta-lactamase (bla) reporter gene in conjunction with a FRET-enabled substrate to provide reliable and sensitive detection in cells. The intrinsic activity test was conducted based on the guidelines provided by the maker of the test kit (Invitrogen, Life Technologies, Carlsbad, CA, USA). […] To perform the agonist assay, 8 μL of a 5-fold higher concentration of agonist in assay medium was added to the cells. […] The agonist and antagonist plates were then incubated in a humidified incubator at 37 °C and 5% CO2 for 5 h. After incubation, cells were loaded with 8 μL of LiveBLAzer™-FRET B/G substrate mix (CCF4-AM), covered for light protection, and incubated at room temperature for 2 h.

3T3L1 cell line = type: cell-based; conditions: mouse, 24 h
Method: (§1) Prior to investigating the biological activity and molecular characteristics of the test compounds in vitro, a comprehensive cytotoxicity screening was performed using HepG2 and 3T3-L1 cell lines. Two complementary assays were applied: one based on the quantification of adenylate kinase release as an indicator of cell membrane damage, and another relying on resazurin reduction to assess cellular metabolic activity. These complementary assays enable sensitive and reliable detection of cytotoxic effects across diverse cell types. This preliminary assessment was carried out to ensure that subsequent functional analyses would not be confounded by nonspecific cytotoxic effects.
(§2) The damage of cell membrane was evaluated with the ToxiLight BioAssay Kit from Lonza (Visp, Switzerland). This test is very sensitive and measures cell damage by looking at the release of adenylate kinase (AK). After 24 h of treatment, 5 µL of culture supernatant was transferred to a 384-well white plate (PerkinElmer, Singapore), followed by the addition of 20 µL of Adenylate Kinase Detection Reagent (AKDR). After a 10 min incubation at room temperature, luminescence was measured using the POLARstar Omega plate reader (BMG Labtech, Ortenberg, Germany). Results were expressed as a percentage relative to a lysed control (100% cell death).

HEPG2 cell line = type: cell-based; conditions: human, 24 h
Method: as §1, §2

3T3-L1 cell line = assay: Cell viability assay (PrestoBlue, metabolic function), 3T3-L1; type: cell-based, mouse; conditions: 24 h, mean
Method: as §1
Cell viability was measured using PrestoBlue reagent (Thermo Fisher Scientific, Waltham, MA, USA), following the manufacturer’s instructions. After 24 h of compound treatment, PrestoBlue reagent was added to each well at 10% of the remaining medium volume. The plate was incubated at 37 °C for 15 min, and fluorescence was measured using the POLARstar Omega plate reader (excitation 530 nm, emission 580 nm). Results were expressed as a percentage of viable cells relative to the DMSO-treated control.

α1-adrenoceptor = assay: Competitive radioligand binding, [3H]prazosin, rat cerebral cortex; conditions: n.a. = no activity at 10–5 M
Method: The competitive radioligand-binding assay assessed affinity for α1- and α2-adrenoceptors. Experiments were carried out in the rat cerebral cortex. […] The membrane preparation and assay technique followed the previously reported protocol. Radioactivity was measured using the MicroBeta2 scintillation counter (PerkinElmer, Kraków, Poland). The data was adjusted to match a single-site curve-fitting formula using Prism 8 (GraphPad Software, La Jolla, CA, USA), and the Ki values were estimated by means of the Cheng–Prusoff formula.

## [H]/N=C(\N)NN=Cc1c(Cl)cncc1Cl [JP-14, (E)-2-((3,5-Dichloropyridin-4-yl)Methylene)Hydrazine-1-Carboximidamide]
Danio rerio larvae
  effect on pigmentation: no effect on pigmentation was observed
Danio rerio larvae; Casper and AB/TL lines, zebrafish (Danio rerio), 24 h
  concentration not causing any visible disturbances: 10000 ng/mL
HepG2 cells; 10 µM + RTI-7470-44 (40 nM)
  glucose-stimulating effect under TAAR1 blockade: substantially attenuated
HepG2 cells; 10 µM, relative to vehicle-treated cells
  increase in glucose consumption (uptake): 29%
α2A-adrenoceptor
  Emax: ~15%
3T3L1 cell line; 0.1 μM
  membrane integrity, percentage relative to control (death cells): 6%
3T3L1 cell line; 1 μM
  membrane integrity, percentage relative to control (death cells): 6%
3T3L1 cell line; 10 μM
  membrane integrity, percentage relative to control (death cells): 5%
3T3L1 cell line; 50 μM
  membrane integrity, percentage relative to control (death cells): 4%
3T3L1 cell line; 100 μM
  membrane integrity, percentage relative to control (death cells): 5%
HEPG2 cell line; 0.1 μM
  membrane integrity, percentage relative to control (death cells): 6%
HEPG2 cell line; 1 μM
  membrane integrity, percentage relative to control (death cells): 6%
HEPG2 cell line; 10 μM
  membrane integrity, percentage relative to control (death cells): 6%
HEPG2 cell line; 50 μM
  membrane integrity, percentage relative to control (death cells): 10%
HEPG2 cell line; 100 μM
  membrane integrity, percentage relative to control (death cells): 8%
3T3-L1 cell line; Table S5, 0.1 μM
  cellular metabolic function, percentage relative to control (live cells): 87%
3T3-L1 cell line; Table S5, 1 μM
  cellular metabolic function, percentage relative to control (live cells): 85%
3T3-L1 cell line; Table S5, 10 μM
  cellular metabolic function, percentage relative to control (live cells): 82%
3T3-L1 cell line; Table S5, 50 μM
  cellular metabolic function, percentage relative to control (live cells): 80%
3T3-L1 cell line; Table S5, 100 μM
  cellular metabolic function, percentage relative to control (live cells): 51%
α1-adrenoceptor
  α1 Ki: did not exhibit notable affinity
